# From US20230123585A1, “COMPOSITIONS AND METHODS FOR TREATING OR PREVENTING CANCER USING DEUBIQUITINASE INHIBITORS” (The University of Chicago, priority 2020, published 2023)
# Key:
# ubiquitination of METTL3 = experiment: Ubiquitination of METTL3 in A375 cells transfected with HA-ubiquitin (IP anti-METTL3, immunoblot anti-HA); type: cell-based, human; details: 10 μM MG-132 and PD0325901 for 8 h
# Method: FIGS. 11A-11G: USP5 is Required for ERK-Mediated METTL3 Stabilization. (A) A375 cells transfected with HA-ubiquitin (ub) were treated with 10 μM MG-132 and MEK inhibitor PD0325901 for 8 h. The ubiquitination of METTL3 was detected by IP with anti-METTL3 and immunoblot with anti-HA. (B) After 8 h treatment with 10 μM PD0325901 with or without 10 μM MG-132, cell lysates from A375 cells were analyzed by immunoblot. (C) A375 cells were treated with various concentrations of PD0325901 for 1 h. Cell lysates were subjected to IP with METTL3 antibody followed by immunoblot. (D) 293T cells transfected as indicated were subjected to IP/immunoblot analysis. (E) Immunofluorescence analysis of myc-METTL3 (green) in mESC stable transfectants. DAPI (blue) was used to mark the nucleus. (F) Lysates of 293T cells transfected as indicated were subjected to IP with anti-Flag antibody followed by immunoblot. (G) Immunofluorescence analysis of 293T cells co-transfected with myc-METTL3 (green), Flag-USP5 (red) with or without constitutively active B-RAF.
# FIGS. 14A-14I: Phosphorylation of the m^6A Methyltransferase Complex May Affect Tumorigenesis. […] (B) LC-MS/MS quantification of the m^6A/A ratio in mRNA of melanoma cell lines. (C) After 8 h treatment with 10 μM PD0325901 or 0.1 μM tramentib, cell lysates from HCT-116 cells were analyzed by immunoblot. […] The ubiquitination of METTL3 was detected by IP with anti-METTL3 and immunoblot with anti-HA. (F) After 8 hr treatment with 10 μM EOAI3402143 (EOAI) or 30 μM vialinin A, cell lysates from HCT-116 cells were analyzed by immunoblot. […] (I) LC-MS/MS quantification of the m^6A/A ratio in mRNA of breast cancer cell lines.
# (§1) Immunoprecipitation, immunoblotting, and in vitro kinase assay. […] Primary antibodies were detected by HRP-linked secondary antibodies (Cell Signaling) together with SuperSignal West Pico Plus chemiluminescent substrate (Thermo Scientific) and imaged in a FluorChem R system (ProteinSimple).
# [1] = system: m^6A methyltransferase complex in HCT-116 cells; experiment: Immunoblot of m^6A methyltransferase complex in HCT-116 cell lysates; type: cell-based; details: 8 h, 10 μM PD0325901 or 0.1 μM trametinib
# Method: FIGS. 14A-14I: Phosphorylation of the m^6A Methyltransferase Complex May Affect Tumorigenesis. (A) Oncogenes (promote cancer), tumor suppressors (inhibit carcinogenesis), and drivers (important in cancer development, either oncogene or tumor suppressor) were used as classifiers by Cancermine database to identify the potential role of METTL3 from the published literature. (B) LC-MS/MS quantification of the m^6A/A ratio in mRNA of melanoma cell lines. (C) After 8 h treatment with 10 μM PD0325901 or 0.1 μM tramentib, cell lysates from HCT-116 cells were analyzed by immunoblot. (D) Kaplan-Meier analysis of overall survival time based on METTL3 expression from the skin cutaneous melanoma (SKCM) dataset at The Cancer Genome Atlas (TCGA). […] The ubiquitination of METTL3 was detected by IP with anti-METTL3 and immunoblot with anti-HA. (F) After 8 hr treatment with 10 μM EOAI3402143 (EOAI) or 30 μM vialinin A, cell lysates from HCT-116 cells were analyzed by immunoblot. […] (I) LC-MS/MS quantification of the m^6A/A ratio in mRNA of breast cancer cell lines.
# as §1
# [2] = system: pluripotency transcripts in R-WT mESCs; experiment: Turnover of m^6A-labeled pluripotency transcripts by qPCR after actinomycin D in mESCs; type: cell-based, mouse; details: 10 μM PD0325901, 5 μg/ml actinomycin D
# From the text: FIGS. 4A-4E: Phosphorylation of METTL3/WTAP by ERK Facilitates Resolution of Pluripotency. (A) LC-MS/MS quantification of the m^6A/A ratio in mRNA of mESC stable transfectants. (B) Representative flow cytometry analyses of mESC stable transfectants for the activity of alkaline phosphatase (AP) and expression of stage-specific embryonic antigen-1 (SSEA-1). (C) qPCR analysis of pluripotency genes in R-3A2A versus R-WT mESCs. (D) Relative levels of Nanog, measured by qPCR, at the indicate times after 5 μg/ml actinomycin D treatment. mRNA levels were monitored in R-WT (black), R-WT with 10 μM PD0325901 (green), and R-3A2A (red) mESC. (E) qPCR analysis for pluripotency and differentiation markers expression after 8 days of embryonic body (EB) induction. Error bars indicated SD (n=3). (See also FIG. 12.)
# FIGS. 12A-12I: Phosphorylation of METTL3/WTAP by ERK Facilitates Resolution of Pluripotency. (A) Representative phase-contrast microscopy showing colony size of R-3A2A versus R-WT mESC cells. (B) Cell growth of R-WT and R-3A2A mESCs were measured by sulforhodamine B dye (SRB assay). […] (D-H) Relative levels of Zfp42, Klf2, Sox2, Lefty1, and Pou5f 1, measured by qPCR, at the indicate times after 5 μg/ml actinomycin D treatment. mRNA levels were monitored in R-WT (black), R-WT with 10 μM PD0325901 (green), and R-3A2A (red) mESCs. […]
smiles,measurement,setting,value
O=C(NOC[C@H](O)CO)c1ccc(F)c(F)c1Nc1ccc(I)cc1F [PD0325901],ubiquitination of METTL3,ubiquitination of METTL3,increased
same,m^6A methyltransferase complex level,[1],decreased
same,turnover of m^6A-labeled pluripotency transcripts after transcription arrest,[2],delayed turnover
